From publication PMC11564096, “Structural and mechanistic insights into Streptococcus pneumoniae NADPH oxidase” (Nature Structural & Molecular Biology, 2024)

Columns and labels:
[1] = biological target: T1, SpNOX (Streptococcus pneumoniae NOX) (Streptococcus pneumoniae, UniProt Q8CZ28); experiment: cytochrome c reduction assay, absorbance at […] nm; format: biochemical; details: 100 µM bovine cytochrome c, 0.1 µM SpNOX, 1 µM FAD, 50 mM Tris pH 7.0, 250 mM NaCl, room temperature, aerobic; read-out: apparent KM
T1 construct: gene spr0531; residues 2-400, N-terminal 6xHis-PreScission tag cleaved, E. coli C41(DE3), LMNG micelles, monomer, 46 kDa, two b-type hemes and FAD
T1 sequence (Q8CZ28 2-400): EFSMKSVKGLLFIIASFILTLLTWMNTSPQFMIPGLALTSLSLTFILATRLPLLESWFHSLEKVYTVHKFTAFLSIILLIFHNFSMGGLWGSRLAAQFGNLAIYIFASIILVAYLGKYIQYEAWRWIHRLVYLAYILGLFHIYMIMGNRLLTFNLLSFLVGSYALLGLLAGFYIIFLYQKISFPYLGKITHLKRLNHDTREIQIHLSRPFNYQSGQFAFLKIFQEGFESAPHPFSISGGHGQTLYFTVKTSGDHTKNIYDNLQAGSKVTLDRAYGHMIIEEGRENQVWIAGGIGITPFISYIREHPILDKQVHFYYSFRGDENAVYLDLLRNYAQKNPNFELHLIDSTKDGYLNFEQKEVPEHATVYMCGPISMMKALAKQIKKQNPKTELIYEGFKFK

[2] = biological target: T1, SpNOX (Streptococcus pneumoniae NOX); format: binding; details: substrate-free, 1 mM FAD added; DH domain FAD site

SMILES	Km [1]	cryo-EM structure, 2.29 Å [2]
NC(=O)C1=CN([C@@H]2O[C@H](COP(=O)(O)OP(=O)(O)OC[C@H]3O[C@@H](n4cnc5c(N)ncnc54)[C@H](OP(=O)(O)O)[C@@H]3O)[C@@H](O)[C@H]2O)C=CC1 [NADPH]	7.59 µM	
Cc1cc2nc3c(=O)[nH]c(=O)nc-3n(C[C@H](O)[C@H](O)[C@H](O)COP(=O)(O)OP(=O)(O)OC[C@H]3O[C@@H](n4cnc5c(N)ncnc54)[C@H](O)[C@@H]3O)c2cc1C [FAD]		A clear density for FAD was well resolved in all maps
